The record followed here is ChEMBL document CHEMBL1158195, “Antitumor germacranolides from Anvillea garcinii” (1996).

For one assay, the system named is CCRF-CEM. Put plainly: Cytotoxicity against human CCRF-CEM cells. The class given is functional. The note with it: read-out: ED50 (the source's name).
The test system of a further assay is NCI-H522. Description: Cytotoxicity against human NCI-H522 cells. The class given is functional. The note with it: read-out: ED50 (the source's name).
The next assay has as its system PC-3. Put plainly: Cytotoxicity against human PC3 cells. The class given is functional. Conditions: read-out: ED50 (the source's name).
For a further assay, the system named is Malme-3M. Description: Cytotoxicity against human MALME-3M cells. The format is functional. Conditions: read-out: ED50 (the source's name).
A further assay has as its system ACHN. Description: Cytotoxicity against human ACHN cells. The class given is functional. Conditions: read-out: ED50 (the source's name).
Assay [1] deals with Human immunodeficiency virus. Description: Antiviral activity against HIV in human H9 cells assessed as virus-induced cytopathic effect. The format is functional, organism-based. (Damage to the host cells serves as the signal in cytopathic effect assays.)
For the next assay, the system named is LOX IMVI. Description: Cytotoxicity against human LOXIMVI cells. The class given is functional. Conditions: read-out: ED50 (the source's name).
Another assay concerns HOP-62. Description: Cytotoxicity against human HOP62 cells. The class given is functional. The note with it: read-out: ED50 (the source's name).
The subject of the next assay is OVCAR-8. Description: Cytotoxicity against human OVCAR8 cells. The format is functional. The note with it: read-out: ED50 (the source's name).
The test system of another assay is DU-145. Put plainly: Cytotoxicity against human DU145 cells. The format is functional. Conditions: read-out: ED50 (the source's name).
A further assay has as its system SF-268. Description: Cytotoxicity against human SF268 cells. The format is functional. The note with it: read-out: ED50 (the source's name).
The next assay deals with MDA-MB-231. Description: Cytotoxicity against human MDA-MB-231 cells. The class given is functional. Conditions: read-out: ED50 (the source's name).
For the next assay, the system named is MOLT-4. Put plainly: Cytotoxicity against human MOLT4 cells. The format is functional. Conditions: read-out: ED50 (the source's name).
A further assay has as its system UO-31. Description: Cytotoxicity against human UO31 cells. The format is functional. Conditions: read-out: ED50 (the source's name).
A further assay concerns SNB-75. Description: Cytotoxicity against human SNB75 cells. The format is functional. The note with it: read-out: ED50 (the source's name).
The test system of a further assay is SW-620. Description: Cytotoxicity against human SW620 cells. The class given is functional. Conditions: read-out: ED50 (the source's name).
The test system of a further assay is HCT-116. Description: Cytotoxicity against human HCT116 cells. The class given is functional. The note with it: read-out: ED50 (the source's name).
The subject of a further assay is T47D. Put plainly: Cytotoxicity against human T47D cells. The format is functional. Conditions: read-out: ED50 (the source's name).
The test system of a further assay is IGROV-1. Description: Cytotoxicity against human IGROV1 cells. The class given is functional. The note with it: read-out: ED50 (the source's name).
Another assay relates to BT-549. Description: Cytotoxicity against human BT549 cells. The format is functional. The note with it: read-out: ED50 (the source's name).

In brackets after ≈: the same amount, converted by molar mass. Activity calls are given as the source filed them. The calls are words filed in the database; no cut-off is given here.

Regarding `C=C1C(=O)O[C@H]2[C@H]1C[C@@H](O)[C@@]1(C)O[C@@H]1CC[C@@]1(C)O[C@@H]21`, the EC50 in the assay with CCRF-CEM was found to be 1.44 µg/mL (≈ 5.14 µM); in the assay on NCI-H522 it was 1.53 µg/mL (≈ 5.46 µM); in the assay with PC-3, 7.59 µg/mL (≈ 27.1 µM); with Malme-3M, 3.28 µg/mL (≈ 11.7 µM); with ACHN it was 3.84 µg/mL (≈ 13.7 µM); in the assay with LOX IMVI, 3.7 µg/mL (≈ 13.2 µM). The EC50 in the assay with HOP-62 is 4.82 µg/mL (≈ 17.2 µM); in the assay with OVCAR-8, 9.72 µg/mL (≈ 34.7 µM); in the assay on DU-145, 10.2 µg/mL (≈ 36.5 µM); with SF-268, 13.5 µg/mL (≈ 48.1 µM); in the assay on MDA-MB-231, 5.35 µg/mL (≈ 19.1 µM); with MOLT-4 it was 1.67 µg/mL (≈ 5.96 µM). For the same compound, the EC50 in the assay on UO-31 came out at 4.76 µg/mL (≈ 17 µM); with SNB-75, 20.8 µg/mL (≈ 74 µM); with SW-620, 3.72 µg/mL (≈ 13.3 µM); in the assay with HCT-116, 4.96 µg/mL (≈ 17.7 µM). Also, the result in assay [1] was inactive.
With `C=C1C(=O)O[C@H]2[C@H]1CC(=O)/C(C)=C/CC[C@@]1(C)O[C@@H]21`, the EC50 in the assay with CCRF-CEM was 0.05 µg/mL (≈ 0.191 µM); with NCI-H522, 0.15 µg/mL (≈ 0.572 µM); with PC-3 it was 0.9 µg/mL (≈ 3.43 µM); in the assay on Malme-3M it was 0.33 µg/mL (≈ 1.26 µM); in the assay with ACHN, 0.3 µg/mL (≈ 1.14 µM); in the assay on LOX IMVI, 0.11 µg/mL (≈ 0.419 µM). In addition, the EC50 in the assay with T47D stood at 0.45 µg/mL (≈ 1.72 µM); in the assay on HOP-62, 0.63 µg/mL (≈ 2.4 µM); with OVCAR-8, 0.78 µg/mL (≈ 2.97 µM); with DU-145, 3.3 µg/mL (≈ 12.6 µM); with SF-268 it was 1.73 µg/mL (≈ 6.6 µM); in the assay on MDA-MB-231, 0.17 µg/mL (≈ 0.648 µM). The EC50 turned out to be 0.94 µg/mL (≈ 3.58 µM) with IGROV-1; 0.07 µg/mL (≈ 0.267 µM) in the assay on MOLT-4; 0.28 µg/mL (≈ 1.07 µM) with UO-31; 4.38 µg/mL (≈ 16.7 µM) in the assay on SNB-75; 0.21 µg/mL (≈ 0.801 µM) in the assay with SW-620; 0.45 µg/mL (≈ 1.72 µM) in the assay with HCT-116. In addition, in the assay on BT-549, the EC50 is 0.34 µg/mL (≈ 1.3 µM). For the same compound, the result in assay [1] was inactive.
Turning to `C=C1C(=O)O[C@H]2[C@H]1C[C@@H](O)/C(C)=C/CC[C@@]1(C)O[C@@H]21`, the EC50 with CCRF-CEM was found to be 0.84 µg/mL (≈ 3.18 µM); in the assay on NCI-H522 it was 0.5 µg/mL (≈ 1.89 µM); with PC-3 it was 11.6 µg/mL (≈ 44 µM); with Malme-3M it was 1.07 µg/mL (≈ 4.05 µM); in the assay with ACHN, 1.91 µg/mL (≈ 7.23 µM); with LOX IMVI, 1.66 µg/mL (≈ 6.28 µM). Further, the EC50 is 1.54 µg/mL (≈ 5.83 µM) in the assay with T47D; 1.32 µg/mL (≈ 4.99 µM) in the assay on HOP-62; 4.07 µg/mL (≈ 15.4 µM) with OVCAR-8; 6.73 µg/mL (≈ 25.5 µM) with DU-145; 10.3 µg/mL (≈ 39 µM) with SF-268; 4.49 µg/mL (≈ 17 µM) with MDA-MB-231. Further, the EC50 was determined as 8.63 µg/mL (≈ 32.6 µM) with IGROV-1; 0.94 µg/mL (≈ 3.56 µM) in the assay with MOLT-4; 7.63 µg/mL (≈ 28.9 µM) with UO-31; 1.08 µg/mL (≈ 4.09 µM) in the assay on SW-620; 1.66 µg/mL (≈ 6.28 µM) in the assay on HCT-116; 2.77 µg/mL (≈ 10.5 µM) in the assay with BT-549. Also, the result in assay [1] was inactive.
As for `C=C1C(=O)O[C@H]2[C@H]1C[C@H](O)[C@@]1(C)O[C@@H]1CC[C@@]1(C)O[C@@H]21`, the EC50 in the assay with CCRF-CEM turned out to be 2.43 µg/mL (≈ 8.67 µM); with NCI-H522, 0.78 µg/mL (≈ 2.78 µM); with PC-3 it was 4.98 µg/mL (≈ 17.8 µM); in the assay with Malme-3M it was 3.36 µg/mL (≈ 12 µM); with ACHN it was 5.07 µg/mL (≈ 18.1 µM); in the assay on T47D, 5.4 µg/mL (≈ 19.3 µM). For the same compound, the EC50 in the assay with HOP-62 turned out to be 5.74 µg/mL (≈ 20.5 µM); in the assay on OVCAR-8, 5.32 µg/mL (≈ 19 µM); with DU-145 it was 9.66 µg/mL (≈ 34.5 µM); in the assay on SF-268, 12.1 µg/mL (≈ 43.2 µM); in the assay with IGROV-1, 4.17 µg/mL (≈ 14.9 µM); with MOLT-4, 2.83 µg/mL (≈ 10.1 µM). In addition, the EC50 with UO-31 was 4.79 µg/mL (≈ 17.1 µM); in the assay with SNB-75 it was 22.5 µg/mL (≈ 80.3 µM); with SW-620, 3.81 µg/mL (≈ 13.6 µM); with HCT-116, 4.65 µg/mL (≈ 16.6 µM); in the assay on BT-549, 3.86 µg/mL (≈ 13.8 µM). In addition, in assay [1], the outcome was inactive.
In the case of `C=C1C(=O)O[C@H]2[C@H]1C[C@H](O)/C(C)=C/CC[C@@]1(C)O[C@@H]21`, the EC50 in the assay with CCRF-CEM came out at 0.8 µg/mL (≈ 3.03 µM); in the assay with NCI-H522 it was 0.45 µg/mL (≈ 1.7 µM); with Malme-3M, 1.62 µg/mL (≈ 6.13 µM); in the assay on ACHN, 2.21 µg/mL (≈ 8.36 µM); with LOX IMVI, 2.46 µg/mL (≈ 9.31 µM); with HOP-62 it was 4.57 µg/mL (≈ 17.3 µM). Besides, the EC50 with OVCAR-8 was found to be 4.75 µg/mL (≈ 18 µM); in the assay with DU-145, 5.6 µg/mL (≈ 21.2 µM); in the assay on SF-268, 7.76 µg/mL (≈ 29.4 µM); in the assay with MDA-MB-231 it was 4.99 µg/mL (≈ 18.9 µM); in the assay with IGROV-1, 3.91 µg/mL (≈ 14.8 µM); with MOLT-4 it was 0.68 µg/mL (≈ 2.57 µM). The EC50 in the assay with UO-31 was determined as 3.88 µg/mL (≈ 14.7 µM); in the assay with SNB-75, 8.53 µg/mL (≈ 32.3 µM); in the assay on SW-620 it was 0.55 µg/mL (≈ 2.08 µM); in the assay on HCT-116, 3.83 µg/mL (≈ 14.5 µM). In addition, in assay [1], the outcome was inactive.
